Laboratory results from patent publication US8067243B2 (priority 2008, dated 2011).
Where two headings read alike, the source gives them in different places.

Columns and labels:
[1] = human, in vivo
[2] = in vivo; cited from earlier work
[3] = in vivo, cited from earlier work
[4] = drug screen, cited from earlier work

COc1ccc2c3c1O[C@H]1C(=O)CC[C@@]4(O)[C@@H](C2)N(C)CC[C@]314 [Oxycodone]
Result (urine concentration) [1]: 544 ng/mL | Retention Time [2]: 1 to 3 days | Retention Time (SR) [2]: (SR 2-4 days) | detection of free drug in urine by LC/MS/MS after administration [2]: up to 3 days | detection of free drug in urine by LC/MS/MS after slow-release dosage form [2]: up to 4 days | oral dose eliminated in urine as oxymorphone ([3]; po): about 14% | oral dose eliminated in urine as total oxycodone ([3]; po): approximately 60%

CN1CC[C@]23c4c5ccc(O)c4O[C@H]2[C@@H](O)C=C[C@H]3[C@H]1C5 [Morphine]
Result (urine concentration) [1]: 104 ng/mL | dose excreted in urine as morphine-3-glucuronide [3]: 70%

c1ccc(C2(N3CCCCC3)CCCCC2)cc1 [Phencyclidine]
Retention Time, Chronic Use ([4]; chronic use): up to 30 days | Retention Time [4]: 8 days

CCC1(CCC(C)C)C(=O)NC(=O)NC1=O [Amobarbital]
Retention Time [4]: 1 to 7 days

CCCC(C)C1(CC)C(=O)NC(=O)NC1=O (centres unmarked) [Pentobarbital]
Retention Time [4]: 0.042 to 1 days

CC(N)Cc1ccccc1 (centres unmarked) [Amphetamine]
Retention Time [4]: 1 to 2 days

CCOC(=O)C1(c2ccccc2)CCN(C)CC1 [Meperidine]
Retention Time [2]: 1 to 2 days | plasma half-life [3]: 3 h

C=CCC1(C(C)C)C(=O)NC(=O)NC1=O [Aprobarbital]
Retention Time [4]: 1 to 7 days

C=CCC1(C(C)CCC)C(=O)NC(=O)NC1=O (centres unmarked) [Secobarbital]
Retention Time [4]: 0.042 to 1 days

C=CCC1(CC(C)C)C(=O)NC(=O)NC1=O [Butalbital]
Retention Time [4]: 0.042 to 2 days

COc1ccc2c3c1O[C@H]1[C@@H](O)C=C[C@H]4[C@@H](C2)N(C)CC[C@@]341 [Codeine]
Result (urine concentration) [1]: 327 ng/mL | time to peak plasma concentration ([3]; po): one

CC(=O)Oc1ccc2c3c1O[C@H]1[C@@H](OC(C)=O)C=C[C@H]4[C@@H](C2)N(C)CC[C@@]341 [heroin, diacetyl morphine]
heroin dose excreted as morphine-3-glucuronide [3]: Approximately 42%

CCC(C)C1(CC)C(=O)NC(=O)NC1=O (centres unmarked) [Butabarbital]
Retention Time [4]: 1 to 7 days

CCOC(=O)C1(c2ccccc2)CCNCC1 [Normeperidine]
plasma half-life [3]: 20 h

CN1[C@H]2CC[C@@H]1[C@@H](C(=O)O)[C@@H](OC(=O)c1ccccc1)C2 [Cocaine metabolite]
Retention Time [4]: 1 to 2 days

COc1ccc2c3c1O[C@H]1C(=O)CC[C@H]4[C@@H](C2)N(C)CC[C@]314 [Hydrocodone]
Result (urine concentration) [1]: 864 ng/mL | Retention Time [2]: 1 to 3 days | detection of free drug in urine by LC/MS/MS after administration [2]: 3 days

CCO [Ethanol]
Retention Time [4]: 0.083 to 0.583 days

CN1CC[C@]23c4c5ccc(O)c4O[C@H]2C(=O)CC[C@@]3(O)[C@H]1C5 [Oxymorphone]
Result (urine concentration) [1]: 223 ng/mL | Retention Time [2]: 1 to 3 days | Retention Time (SR) [2]: (SR 2-4 days) | detection of free drug in urine by LC/MS/MS after administration [2]: up to 3 days | detection of free drug in urine by LC/MS/MS after slow-release dosage form [2]: up to 4 days | dose excreted in urine [3]: About 49%
